Tested on: MV-4-11 cells
Assay: Gene expression microarray analysis (Affymetrix PrimeView) and GSEA
Type: cell-based, human
Parameters: RFU PODN (11730768_x_at) / Fold change /veh PODN (11730768_x_at) / RFU LINC00158 (11744669_a_at) / Fold change /veh LINC00158 (11744669_a_at) / RFU DUSP10 (11751237_a_at) / Fold change /veh DUSP10 (11751237_a_at) / RFU ID3 (11757404_x_at) / Fold change /veh ID3 (11757404_x_at) / RFU PLEKHG5 (11737974_s_at) / Fold change /veh PLEKHG5 (11737974_s_at) / RFU LRRC4B (11730491_at) / Fold change /veh LRRC4B (11730491_at) / RFU GIMAP4 (11747438_a_at) / Fold change /veh GIMAP4 (11747438_a_at) / RFU KRT8 (11758183_x_at) / Fold change /veh KRT8 (11758183_x_at) / RFU CNN1 (11734310_a_at) / Fold change /veh CNN1 (11734310_a_at) / RFU VPS37D (11726825_at) / Fold change /veh VPS37D (11726825_at) / RFU C10orf10 (11716522_x_at) / Fold change /veh C10orf10 (11716522_x_at) / RFU KIR2DL2 /// KIR2DL4 /// KIR2DL5A /// KIR2DL5B /// KIR2DS1 /// KIR2DS2 /// KIR2DS3 /// KIR2DS4 /// KIR3DL3 /// KIR3DL3 /// KIR3DS1 (11738374_at) / Fold change /veh KIR2DL2 /// KIR2DL4 /// KIR2DL5A /// KIR2DL5B /// KIR2DS1 /// KIR2DS2 /// KIR2DS3 /// KIR2DS4 /// KIR3DL3 /// KIR3DL3 /// KIR3DS1 (11738374_at) / RFU C1QL1 (11718748_at) / Fold change /veh C1QL1 (11718748_at) / RFU TMPRSS4 (11747572_a_at) / Fold change /veh TMPRSS4 (11747572_a_at) / RFU HAMP (11756126_x_at) / Fold change /veh HAMP (11756126_x_at) / RFU RNFT2 (11725882_a_at) / Fold change /veh RNFT2 (11725882_a_at) / RFU NR4A2 (11747474_a_at) / Fold change /veh NR4A2 (11747474_a_at) / RFU ABCC12 (11746883_a_at) / Fold change /veh ABCC12 (11746883_a_at) / RFU TMEM136 (11760407_x_at) / Fold change /veh TMEM136 (11760407_x_at) / RFU CLDN22 /// WWC2 (11732394_at) / Fold change /veh CLDN22 /// WWC2 (11732394_at) / RFU HLA-DPB1 (11760878_x_at) / Fold change /veh HLA-DPB1 (11760878_x_at) / RFU SPINT1 (11716480_a_at) / Fold change /veh SPINT1 (11716480_a_at) / RFU GAP43 (11754022_s_at) / Fold change /veh GAP43 (11754022_s_at) / RFU A4GNT (11735810_at) / Fold change /veh A4GNT (11735810_at) / RFU PRB3 (11715151_x_at) / Fold change /veh PRB3 (11715151_x_at) / RFU TUBB4B (11761932_at) / Fold change /veh TUBB4B (11761932_at) / RFU CAPN14 (11732068_a_at) / Fold change /veh CAPN14 (11732068_a_at) / RFU TMCC2 (11721928_a_at) / Fold change /veh TMCC2 (11721928_a_at) / RFU IRGQ (11745062_a_at) / Fold change /veh IRGQ (11745062_a_at) / RFU FAM174B (11720279_a_at) / Fold change /veh FAM174B (11720279_a_at) / RFU TMPRSS4 (11748680_a_at) / Fold change /veh TMPRSS4 (11748680_a_at) / RFU FAM212B (11763350_a_at) / Fold change /veh FAM212B (11763350_a_at) / RFU PLEKHG5 (11743358_a_at) / Fold change /veh PLEKHG5 (11743358_a_at) / RFU ZSCAN30 (11745921_a_at) / Fold change /veh ZSCAN30 (11745921_a_at) / RFU CMKLR1 (11741424_a_at) / Fold change /veh CMKLR1 (11741424_a_at) / RFU LOC101060620 /// MAPK8IP1 (11723275_at) / Fold change /veh LOC101060620 /// MAPK8IP1 (11723275_at) / RFU SPTSSB (11747773_x_at) / Fold change /veh SPTSSB (11747773_x_at) / RFU PRSS12 (11739890_at) / Fold change /veh PRSS12 (11739890_at) / RFU BIN1 (11741810_x_at) / Fold change /veh BIN1 (11741810_x_at) / RFU WNT11 (11732464_a_at) / Fold change /veh WNT11 (11732464_a_at) / RFU C10orf10 (11716521_a_at) / Fold change /veh C10orf10 (11716521_a_at) / RFU C5orf56 (11738089_at) / Fold change /veh C5orf56 (11738089_at) / RFU CYB561 (11721691_x_at) / Fold change /veh CYB561 (11721691_x_at) / RFU ANKRD19P (11752326_a_at) / Fold change /veh ANKRD19P (11752326_a_at) / RFU OR2T12 /// OR2T33 /// OR2T8 (11738714_s_at) / Fold change /veh OR2T12 /// OR2T33 /// OR2T8 (11738714_s_at) / RFU VCAN (11748164_a_at) / Fold change /veh VCAN (11748164_a_at) / RFU JSRP1 (11732532_at) / Fold change /veh JSRP1 (11732532_at) / RFU KRTAP10-11 (11738290_x_at) / Fold change /veh KRTAP10-11 (11738290_x_at) / RFU MYO3A (11730013_a_at) / Fold change /veh MYO3A (11730013_a_at) / RFU EBF3 (11725865_a_at) / Fold change /veh EBF3 (11725865_a_at) / RFU CAMK2N1 (11719241_x_at) / Fold change /veh CAMK2N1 (11719241_x_at) / RFU C5orf56 (11738088_a_at) / Fold change /veh C5orf56 (11738088_a_at) / RFU OLFML3 (11715873_a_at) / Fold change /veh OLFML3 (11715873_a_at) / RFU LOC100653217 /// NTM (11731650_a_at) / Fold change /veh LOC100653217 /// NTM (11731650_a_at) / RFU MAPK11 (11762145_a_at) / Fold change /veh MAPK11 (11762145_a_at) / RFU FIZ1 (11724087_x_at) / Fold change /veh FIZ1 (11724087_x_at) / RFU OASL (11726364_x_at) / Fold change /veh OASL (11726364_x_at) / RFU SOX15 (11748057_x_at) / Fold change /veh SOX15 (11748057_x_at) / RFU CD79A (11719716_a_at) / Fold change /veh CD79A (11719716_a_at) / RFU HIST1H1D (11736915_at) / Fold change /veh HIST1H1D (11736915_at) / RFU CASKIN2 (11723855_a_at) / Fold change /veh CASKIN2 (11723855_a_at) / RFU LOC730098 (11760151_x_at) / Fold change /veh LOC730098 (11760151_x_at) / RFU OR4N2 (11742367_at) / Fold change /veh OR4N2 (11742367_at) / RFU PRRT2 (11749266_a_at) / Fold change /veh PRRT2 (11749266_a_at) / RFU SNX32 (11753110_a_at) / Fold change /veh SNX32 (11753110_a_at) / RFU CDHR5 (11726645_a_at) / Fold change /veh CDHR5 (11726645_a_at) / RFU RCAN1 (11760418_a_at) / Fold change /veh RCAN1 (11760418_a_at) / RFU FAM167A (11723789_a_at) / Fold change /veh FAM167A (11723789_a_at) / RFU FAM26E (11764081_at) / Fold change /veh FAM26E (11764081_at) / RFU ISYNA1 (11749810_s_at) / Fold change /veh ISYNA1 (11749810_s_at) / RFU ACY1 (11761880_at) / Fold change /veh ACY1 (11761880_at) / RFU 11764098_at / Fold change /veh 11764098_at / RFU SAMD14 (11745864_x_at) / Fold change /veh SAMD14 (11745864_x_at) / RFU NPB (11741838_a_at) / Fold change /veh NPB (11741838_a_at) / RFU TMPRSS6 (11731388_a_at) / Fold change /veh TMPRSS6 (11731388_a_at) / RFU KRTAP10-2 (11738614_at) / Fold change /veh KRTAP10-2 (11738614_at) / RFU ARHGAP8 /// PRR5-ARHGAP8 (11727945_x_at) / Fold change /veh ARHGAP8 /// PRR5-ARHGAP8 (11727945_x_at) / RFU KRTAP5-7 /// NADSYN1 (11734609_at) / Fold change /veh KRTAP5-7 /// NADSYN1 (11734609_at) / RFU RASL12 (11751679_a_at) / Fold change /veh RASL12 (11751679_a_at) / RFU CDKN2B (11736163_a_at) / Fold change /veh CDKN2B (11736163_a_at) / RFU PRF1 (11729649_at) / Fold change /veh PRF1 (11729649_at) / RFU, ZNF638 /// ZNF638-IT1 / Fold change vs veh, ZNF638 /// ZNF638-IT1 / RFU, PANK3 / Fold change vs veh, PANK3 / RFU, SH3YL1 / Fold change vs veh, SH3YL1 / RFU, ZEB2 / Fold change vs veh, ZEB2 / RFU, NRIP1 / Fold change vs veh, NRIP1 / RFU, PTTG1IP / Fold change vs veh, PTTG1IP / RFU, CAPN2 / Fold change vs veh, CAPN2 / RFU, MED14 / Fold change vs veh, MED14 / RFU, SNORA58 / Fold change vs veh, SNORA58 / RFU, C1orf63 / Fold change vs veh, C1orf63 / RFU, LRRFIP1 / Fold change vs veh, LRRFIP1 / RFU, NDUFAF7 / Fold change vs veh, NDUFAF7 / RFU, SLC12A2 / Fold change vs veh, SLC12A2 / RFU, IBTK / Fold change vs veh, IBTK / RFU, ESF1 / Fold change vs veh, ESF1 / Fold change vs veh, TMEM50B / RFU, TAOK1 / Fold change vs veh, TAOK1 / RFU, ACBD3 / Fold change vs veh, ACBD3 / RFU, TMA16 / Fold change vs veh, TMA16 / RFU, RWDD3 / Fold change vs veh, RWDD3 / RFU, BCAT1 / Fold change vs veh, BCAT1 / RFU, EDEM3 / Fold change vs veh, EDEM3 / RFU, TMEM33 / Fold change vs veh, TMEM33 / RFU, WDR75 / Fold change vs veh, WDR75 / RFU, AHCTF1 / Fold change vs veh, AHCTF1 / RFU, TFRC / Fold change vs veh, TFRC / RFU, ZDHHC17 / Fold change vs veh, ZDHHC17 / RFU, NOM1 / Fold change vs veh, NOM1 / RFU, ARL8B / Fold change vs veh, ARL8B / RFU, ZBTB11 / Fold change vs veh, ZBTB11 / RFU, TAMM41 / Fold change vs veh, TAMM41 / RFU, KIAA1704 /// LOC100996395 / Fold change vs veh, KIAA1704 /// LOC100996395 / RFU, ING1 / Fold change vs veh, ING1 / RFU, TRMT61B / Fold change vs veh, TRMT61B / RFU, FUBP3 / Fold change vs veh, FUBP3 / RFU, TP53 / Fold change vs veh, TP53 / RFU, TNKS2 / Fold change vs veh, TNKS2 / RFU, ZFP14 / Fold change vs veh, ZFP14 / RFU, ACTR2 / Fold change vs veh, ACTR2 / RFU, PPP3R1 / Fold change vs veh, PPP3R1 / RFU, PIK3R1 / Fold change vs veh, PIK3R1 / RFU, HNRNPA1 / Fold change vs veh, HNRNPA1 / RFU, RNF170 / Fold change vs veh, RNF170 / RFU, ZNF28 / Fold change vs veh, ZNF28 / RFU, RNGTT / Fold change vs veh, RNGTT / RFU, OGT / Fold change vs veh, OGT / RFU, BRD1 / Fold change vs veh, BRD1 / RFU, MARS / Fold change vs veh, MARS / RFU, ZNF655 / Fold change vs veh, ZNF655 / RFU, FAHD1 / Fold change vs veh, FAHD1 / RFU, BDP1 / Fold change vs veh, BDP1 / RFU, LRRCC1 / Fold change vs veh, LRRCC1 / RFU, ARID1A / Fold change vs veh, ARID1A / RFU, ZNF146 / Fold change vs veh, ZNF146 / RFU, ZNF330 / Fold change vs veh, ZNF330 / RFU, GPN3 / Fold change vs veh, GPN3 / RFU, C9orf123 / Fold change vs veh, C9orf123 / RFU, N4BP2L2 / Fold change vs veh, N4BP2L2 / RFU, ARFIP1 / Fold change vs veh, ARFIP1 / RFU, FAM179B / Fold change vs veh, FAM179B / RFU, BCL10 / Fold change vs veh, BCL10 / RFU, UHRF1BP1L / Fold change vs veh, UHRF1BP1L / RFU, BET1 / Fold change vs veh, BET1 / RFU, CNOT2 / Fold change vs veh, CNOT2 / RFU, ZNF268 / Fold change vs veh, ZNF268 / Fold change vs veh, ZNF507 / RFU, DGCR2 / Fold change vs veh, DGCR2 / RFU, WDSUB1 / Fold change vs veh, WDSUB1 / Fold change vs veh, HSP90B1 /// MIR3652 / RFU, ADSS / Fold change vs veh, ADSS / RFU, GK / Fold change vs veh, GK / RFU, ZNF148 / Fold change vs veh, ZNF148 / RFU, TAF9 / Fold change vs veh, TAF9 / RFU, SLC1A5 / Fold change vs veh, SLC1A5 / RFU, SLMO2 / Fold change vs veh, SLMO2 / RFU, ABCC4 / Fold change vs veh, ABCC4 / RFU, LOC101060439 /// RAP1B / Fold change vs veh, LOC101060439 /// RAP1B / RFU, RFX7 / Fold change vs veh, RFX7 / RFU, GTPBP10 / Fold change vs veh, GTPBP10 / RFU, CNEP1R1 / Fold change vs veh, CNEP1R1 / RFU, BIVM-ERCC5 /// ERCC5 / Fold change vs veh, BIVM-ERCC5 /// ERCC5 / RFU, ILF3 / Fold change vs veh, ILF3 / RFU 11762660_at / Fold change /veh 11762660_at / RFU VCAN (11757783_s_at) / Fold change /veh VCAN (11757783_s_at) / RFU DDX43 (11728927_at) / Fold change /veh DDX43 (11728927_at) / RFU KRT8 (11758188_x_at) / Fold change /veh KRT8 (11758188_x_at) / RFU NKD1 (11759106_at) / Fold change /veh NKD1 (11759106_at) / RFU SRD5A1 (11742802_a_at) / Fold change /veh SRD5A1 (11742802_a_at) / RFU TPSAB1 /// TPSB2 (11721975_s_at) / Fold change /veh TPSAB1 /// TPSB2 (11721975_s_at) / RFU GSTM3 (11746129_a_at) / Fold change /veh GSTM3 (11746129_a_at) / RFU IL23R (11737362_x_at) / Fold change /veh IL23R (11737362_x_at) / RFU TMEM51 (11727254_a_at) / Fold change /veh TMEM51 (11727254_a_at) / RFU PIWIL2 (11732686_x_at) / Fold change /veh PIWIL2 (11732686_x_at) / RFU ORM1 (11744905_x_at) / Fold change /veh ORM1 (11744905_x_at) / RFU CCDC152 (11743942_at) / Fold change /veh CCDC152 (11743942_at) / RFU ECM1 (11717891_a_at) / Fold change /veh ECM1 (11717891_a_at) / RFU IL23R (11748794_a_at) / Fold change /veh IL23R (11748794_a_at) / RFU TNFAIP8L3 (11732012_x_at) / Fold change /veh TNFAIP8L3 (11732012_x_at) / RFU MBOAT4 (11741988_at) / Fold change /veh MBOAT4 (11741988_at) / RFU 11764193_at / Fold change /veh 11764193_at / RFU TMEM53 (11763286_at) / Fold change /veh TMEM53 (11763286_at) / RFU MAGEB2 (11727129_at) / Fold change /veh MAGEB2 (11727129_at) / RFU TMEM200A (11744735_a_at) / Fold change /veh TMEM200A (11744735_a_at) / RFU CCDC152 (11751479_a_at) / Fold change /veh CCDC152 (11751479_a_at) / RFU FAM211A (11726209_a_at) / Fold change /veh FAM211A (11726209_a_at) / RFU RGS16 (11746705_a_at) / Fold change /veh RGS16 (11746705_a_at) / RFU VCAN (11755009_s_at) / Fold change /veh VCAN (11755009_s_at) / RFU RHOB (11743442_s_at) / Fold change /veh RHOB (11743442_s_at) / RFU RGS16 (11720943_a_at) / Fold change /veh RGS16 (11720943_a_at) / RFU RGS16 (11720944_at) / Fold change /veh RGS16 (11720944_at) / RFU, VPS4B / Fold change vs veh, VPS4B / RFU, CREB1 / Fold change vs veh, CREB1 / RFU, DNAJC13 / Fold change vs veh, DNAJC13 / RFU, GNAQ / Fold change vs veh, GNAQ / RFU, CDK5R1 / Fold change vs veh, CDK5R1 / RFU, ZRANB3 / Fold change vs veh, ZRANB3 / RFU, CUL4A / Fold change vs veh, CUL4A / RFU, CCNY / Fold change vs veh, CCNY / RFU, UFL1 / Fold change vs veh, UFL1 / RFU, COG3 / Fold change vs veh, COG3 / RFU, DIAPH2 / Fold change vs veh, DIAPH2 / RFU, SKA2 / Fold change vs veh, SKA2 / RFU, AFF3 / Fold change vs veh, AFF3 / RFU, LMF1 / Fold change vs veh, LMF1 / RFU, IPO11 / Fold change vs veh, IPO11 / RFU, DFFB / Fold change vs veh, DFFB / RFU, FOXP1 / Fold change vs veh, FOXP1 / RFU, CARD8 / Fold change vs veh, CARD8 / RFU, STRN3 / Fold change vs veh, STRN3 / RFU, ADK / Fold change vs veh, ADK / RFU, RASSF2 / Fold change vs veh, RASSF2 / RFU, WIPF1 / Fold change vs veh, WIPF1 / RFU, LARP1B / Fold change vs veh, LARP1B / RFU, RASA1 / Fold change vs veh, RASA1 / RFU, RB1 / Fold change vs veh, RB1 / RFU, PPFIA1 / Fold change vs veh, PPFIA1 / RFU, MAT2A / Fold change vs veh, MAT2A / RFU, CCT5 / Fold change vs veh, CCT5 / RFU, WDR92 / Fold change vs veh, WDR92 / RFU, CUX1 / Fold change vs veh, CUX1 / RFU, TTC7A / Fold change vs veh, TTC7A / RFU, TMEM135 / Fold change vs veh, TMEM135 / RFU, DEPTOR / Fold change vs veh, DEPTOR / RFU, CPM / Fold change vs veh, CPM / RFU, DNAJB6 / Fold change vs veh, DNAJB6 / RFU, CACNA2D3 / Fold change vs veh, CACNA2D3 / RFU, DTX4 / Fold change vs veh, DTX4 / RFU, TFCP2 / Fold change vs veh, TFCP2 / RFU, GMCL1 /// GMCL1P1 / Fold change vs veh, GMCL1 /// GMCL1P1 / RFU, AEBP2 / Fold change vs veh, AEBP2 / RFU, SNHG1 /// SNORD22 /// SNORD25 /// SNORD26 /// SNORD27 /// SNORD28 /// SNORD29 /// SNORD31 / Fold change vs veh, SNHG1 /// SNORD22 /// SNORD25 /// SNORD26 /// SNORD27 /// SNORD28 /// SNORD29 /// SNORD31 / Fold change (Aza/veh), C12orf56 (ProbeSet 11735607_a_at) / Fold change (ACY-1035/veh), C12orf56 (ProbeSet 11735607_a_at) / Fold change (Aza/veh), FGFR1OP (ProbeSet 11751329_s_at) / Fold change (ACY-1035/veh), FGFR1OP (ProbeSet 11751329_s_at) / Fold change (Aza/veh), VPS36 (ProbeSet 11739960_a_at) / Fold change (ACY-1035/veh), VPS36 (ProbeSet 11739960_a_at) / RFU SYPL1 (11715823_x_at) / Fold change /veh SYPL1 (11715823_x_at) / RFU IGFBP7 (11715501_s_at) / Fold change /veh IGFBP7 (11715501_s_at) / RFU REEP3 (11722064_at) / Fold change /veh REEP3 (11722064_at) / RFU IGLL1 (11728026_x_at) / Fold change /veh IGLL1 (11728026_x_at): dose or concentration left out as unconfirmed
Conditions: MV-4-11 cells, 48 hours

Nc1ccc(-c2cccs2)cc1NC(=O)c1ccc2c(c1)cc(C1CC1)n2CCN1CCOCC1 [ACY-1035]
RFU EBF3 (11725865_a_at): 63.04 RFU
